What was measured:
Type in all cases: in vivo
[1] = test system: Alopecurus myosuroides; assay: Field trial Example 1, successive application: damage on ALOMY
Text: (§1) Aminiopyralid was used as commercial aquaeous solution having an active ingredient concentration of 240 g/l (Milestone™). Metazachlor was used as a commercial suspension concentrate having an active ingredient concentration of 500 g/l (Butisan S®).
(§2) The performance of aminopyralid applied as an alone treatment at 15, 30 and 50 g a.i./ha applied as an early post emergence treatment and an post emergence treatment in comparison to two different applications including metazachlor at 500 g a.i./ha as an early post emergence application in succession of aminopyralid as a post emergence application at 15 and 30 g a.i./ha was assessed in an oilseed rape field trials.
(§3) The early post emergence treatment was applied by means of fine distributed nozzles at the growth stage (GS) of the crop BBCH 11-12.
(§4) The post emergence treatment was applied by means of fine distributed nozzles at the growth stage (GS) of the crop BBCH 13-14.
(§5) The test period extended over the autumn and spring season (205 days).
(§6) In the following experiments, the herbicidal activity for the individual herbicide compounds (solo application) and of the herbicidal succession was assessed 4 times:
(§7) The evaluation for the damage on undesired weeds caused by the chemical compositions was carried out using a scale from 0 to 100%, compared to the untreated control plants. Here, 0 means no damage and 100 means complete destruction of the plants.

[2] = test system: Stellaria media; assay: Greenhouse trial, post-emergence: STEME; details: post-emergence (Tables 7-9)
Method: (§8) The test plants have been seeded, separately for each species, in plastic containers in sandy loamy soil containing 5% organic matter.
(§9) For the post emergence treatment, the plants were first grown to the 2 leaf station (GS 12). Here, the herbicidal compositions were suspended or emulsified in water as distribution medium and sprayed using finely distributing nozzels.
(§10) The plants have been cultivated due to there individual requirements at 10-25° C. and 20-35° C. The plants were irrigated due to there necessity. […]
as §7
(§11) Calculation of expected activity of binary mixtures was done by using the Colby-Formula according to Example 1.

[3] = test system: Alopecurus myosuroides; assay: Field trial Example 2, combined application: ALOMY; details: Aminopyralid 7.5 g ai/ha solo, 28 DAT
Method: as §1, §7
(§12) The value E, which is to be expected if the activity of the individual compounds is just additive, was calculated using the method of S. R. Colby (1967) “Calculating synergistic and antagonistic responses of herbicide combinations”, Weeds 15, p. 22 ff.
(§13) The performance of aminopyralid, applied as an alone treatment at […] and 15 g ai/ha, and the performance of metazachlor, applied as an alone treatment at 375 and 500 g ai/ha, as well as the mixtures of the both compounds have been assessed in winter oilseed rape field trials. The trials have been conducted in Germany at two locations.
(§14) Post emergence treatment was applied by means of fine distributed nozzels at the growth stage (GS/BBCH 11/12).

[4] = test system: Centauria cyanus; assay: Greenhouse trial, post-emergence: CENCY; details: for % activity 28 DAT: CENCY, post-emergence (Tables 7-9)
Method: as §8, §9, §10, §7, §11

[5] = test system: Stellaria media; assay: Field trial Example 2, combined application: STEME; details: Aminopyralid 7.5 g ai/ha solo, 28 DAT
Method: as §1, §7, §12, §13, §14

[6] = test system: Sinapis alba; assay: Field trial Example 1, successive application: damage on SINAL; details: DAT 25/DALT 10
Text: as §1, §2, §3, §4, §5, §6, §7

[7] = test system: Matricaria inodora; assay: Field trial Example 1, successive application: damage on MATIN
Text: as §1, §2, §3, §4, §5, §6, §7

[8] = test system: Anthemis arvensis; assay: Field trial Example 2, combined application: ANTAR
Method: as §1, §7, §12, §13, §14

[9] = test system: Apera spica-venti; assay: Field trial Example 1, successive application: damage on APESV
Text: as §1, §2, §3, §4, §5, §6, §7

[10] = test system: Capsella bursa-pasturis; assay: Greenhouse trial, post-emergence: CAPBP; details: aminopyralid 10 g ai/ha solo, post-emergence (Table 10)
Method: as §8, §9, §10, §7, §11

[11] = 15 g ai/ha, treatment A early post emergence, DAT 25/DALT 10
[12] = 15 g ai/ha, treatment A early post emergence, DAT 65/DALT 50
[13] = 15 g ai/ha, treatment A early post emergence, DAT 176/DALT 161
[14] = 15 g ai/ha, treatment B post emergence, DAT 25/DALT 10
[15] = 15 g ai/ha, treatment B post emergence, DAT 65/DALT 50
[16] = 15 g ai/ha, treatment B post emergence, DAT 176/DALT 161
[17] = 30 g ai/ha, treatment A early post emergence, DAT 25/DALT 10
[18] = 30 g ai/ha, treatment A early post emergence, DAT 65/DALT 50
[19] = 30 g ai/ha, treatment A early post emergence, DAT 176/DALT 161
[20] = 30 g ai/ha, treatment B post emergence, DAT 25/DALT 10
[21] = 30 g ai/ha, treatment B post emergence, DAT 65/DALT 50
[22] = 30 g ai/ha, treatment B post emergence, DAT 176/DALT 161
[23] = 50 g ai/ha, treatment A early post emergence, DAT 25/DALT 10
[24] = 50 g ai/ha, treatment A early post emergence, DAT 65/DALT 50
[25] = 50 g ai/ha, treatment A early post emergence, DAT 176/DALT 161
[26] = 50 g ai/ha, treatment B post emergence, DAT 25/DALT 10
[27] = 50 g ai/ha, treatment B post emergence, DAT 65/DALT 50
[28] = 50 g ai/ha, treatment B post emergence, DAT 176/DALT 161
[29] = aminopyralid 15 g ai/ha, treatment A, DAT 205/DALT 190
[30] = aminopyralid 15 g ai/ha, treatment B, DAT 205/DALT 190
[31] = aminopyralid 30 g ai/ha, treatment A, DAT 205/DALT 190
[32] = aminopyralid 30 g ai/ha, treatment B, DAT 205/DALT 190
[33] = aminopyralid 50 g ai/ha, treatment A, DAT 205/DALT 190
[34] = aminopyralid 50 g ai/ha, treatment B, DAT 205/DALT 190
[35] = post-emergence, 672 h, read-out: % activity 28 DAT, CENCY

## Nc1cc(Cl)nc(C(=O)O)c1Cl [aminopyralid, 4-amino-3,6-dichloropyridine-2-carboxylic acid]
[1]; [11]
  damage on ALOMY: 0%
[1]; [12]
  damage on ALOMY: 22%
[1]; [13]
  damage on ALOMY: 22%
[1]; [14]
  damage on ALOMY: 0%
[1]; [15]
  damage on ALOMY: 25%
[1]; [16]
  damage on ALOMY: 25%
[1]; [17]
  damage on ALOMY: 57%
[1]; [18]
  damage on ALOMY: 37%
[1]; [19]
  damage on ALOMY: 37%
[1]; [20]
  damage on ALOMY: 0%
[1]; [21]
  damage on ALOMY: 32%
[1]; [22]
  damage on ALOMY: 32%
[1]; [23]
  damage on ALOMY: 77%
[1]; [24]
  damage on ALOMY: 80%
[1]; [25]
  damage on ALOMY: 80%
[1]; [26]
  damage on ALOMY: 20%
[1]; [27]
  damage on ALOMY: 42%
[1]; [28]
  damage on ALOMY: 42%
[1]; [29]
  damage on ALOMY: 22%
[1]; [30]
  damage on ALOMY: 38%
[1]; [31]
  damage on ALOMY: 37%
[1]; [32]
  damage on ALOMY: 32%
[1]; [33]
  damage on ALOMY: 80%
[1]; [34]
  damage on ALOMY: 42%
[2]; aminopyralid 5 g ai/ha solo
  % activity 28 DAT: 35%
[2]; aminopyralid 10 g ai/ha solo
  % activity 28 DAT: 65%
[3]
  % activity: 60%
[4]; aminopyralid 5 g ai/ha solo
  % activity 28 DAT: 60%
[4]; aminopyralid 10 g ai/ha solo
  % activity 28 DAT: 65%
[4]; [35]
  inhibition at 5 g/ha: 70%
  inhibition at 10 g/ha: 85%
[5]
  % activity: 75%
[6]; 15 g ai/ha, treatment A early post emergence
  damage on SINAL: 13%
[6]; 15 g ai/ha, treatment B post emergence
  damage on SINAL: 0%
[6]; 30 g ai/ha, treatment A early post emergence
  damage on SINAL: 50%
[6]; 30 g ai/ha, treatment B post emergence
  damage on SINAL: 0%
[6]; 50 g ai/ha, treatment A early post emergence
  damage on SINAL: 67%
[6]; 50 g ai/ha, treatment B post emergence
  damage on SINAL: 0%
[7]; [11]
  damage on MATIN: 97%
[7]; [12]
  damage on MATIN: 96%
[7]; [13]
  damage on MATIN: 100%
[7]; [14]
  damage on MATIN: 88%
[7]; [15]
  damage on MATIN: 88%
[7]; [16]
  damage on MATIN: 98%
[7]; [17]
  damage on MATIN: 100%
[7]; [18]
  damage on MATIN: 98%
[7]; [19]
  damage on MATIN: 100%
[7]; [20]
  damage on MATIN: 82%
[7]; [21]
  damage on MATIN: 91%
[7]; [22]
  damage on MATIN: 100%
[7]; [23]
  damage on MATIN: 100%
[7]; [24]
  damage on MATIN: 100%
[7]; [25]
  damage on MATIN: 100%
[7]; [26]
  damage on MATIN: 88%
[7]; [27]
  damage on MATIN: 94%
[7]; [28]
  damage on MATIN: 98%
[7]; [29]
  damage on MATIN: 100%
[7]; [30]
  damage on MATIN: 100%
[7]; [31]
  damage on MATIN: 100%
[7]; [32]
  damage on MATIN: 100%
[7]; [33]
  damage on MATIN: 100%
[7]; [34]
  damage on MATIN: 100%
[8]; Aminopyralid 7.5 g ai/ha solo, 29 DAT
  % activity: 77%
[8]; Aminopyralid 15 g ai/ha solo, 29 DAT
  % activity: 94%
[8]; Aminopyralid 15 g ai/ha solo, 78 DAT
  % activity: 96%
[9]; [12]
  damage on APESV: 28%
[9]; [13]
  damage on APESV: 28%
[9]; [15]
  damage on APESV: 32%
[9]; [16]
  damage on APESV: 32%
[9]; [18]
  damage on APESV: 47%
[9]; [19]
  damage on APESV: 47%
[9]; [21]
  damage on APESV: 38%
[9]; [22]
  damage on APESV: 38%
[9]; [24]
  damage on APESV: 85%
[9]; [25]
  damage on APESV: 85%
[9]; [27]
  damage on APESV: 55%
[9]; [28]
  damage on APESV: 55%
[9]; [29]
  damage on APESV: 28%
[9]; [30]
  damage on APESV: 45%
[9]; [31]
  damage on APESV: 47%
[9]; [32]
  damage on APESV: 38%
[9]; [33]
  damage on APESV: 85%
[9]; [34]
  damage on APESV: 55%
[10]
  % activity 28 DAT: 25%

From patent US20110092367A1, “Herbicidal Compositions Comprising 4-amino-3,6-dichloropyridine-2-carboxylic Acid” (BASF SE, priority 2008, published 2011)
